From a melting point compilation (Tetko et al.; mined from patent text by program, amines drawn as free bases though some values may be those of a salt) come the findings set out here.

Regarding `CC(C)Oc1ccc(Nc2ccc(N=C=O)cc2C(F)(F)F)cc1C(F)(F)F`, the melting point – broadly, the temperature of the solid-liquid transition – was in the range of 102 to 105 °C.

Consider `O=C(NCCc1ccc(Cl)cc1Cl)Nc1cccc2[nH]ccc12`, for which the melting point is 170 °C.

`O=C(Nc1ccc(OC(F)(F)F)cc1)NC1CCNCC1` had a melting point of 169 to 173 °C. The value for `COc1ccc(S(=O)(=O)N(Cc2ccccc2)C2(C(=O)NO)CCSCC2)cc1` was 179 to 181 °C. Then `CC1(C)CC(NC(=O)ON(Cc2ccccc2)Cc2ccccc2)CC(C)(CNC(=O)ON(Cc2ccccc2)Cc2ccccc2)C1` (stereo not drawn), with 139 to 146 °C; and `Cc1c(N2CCC(N)C2)c(F)cc2c(=O)c(C(=O)O)cn(C3COC3)c12` (stereo not drawn), with more than 230 °C. Then `C#CCS(=O)(=O)c1cccc([N+](=O)[O-])c1`, with 250 to 255 °C. For `COc1ccc(-c2cc3cc(OC)cc(C(=O)O)c3o2)cc1`, the melting point is 218 to 220 °C. With `O=c1ccoc(C(O)c2cccc(F)c2)c1OCc1ccccc1` (stereo not drawn), the melting point was in the range of 95 to 96 °C. The value for `CCCCCCC(=N)NC(=O)Nc1ccc(Cl)cc1` was 168 to 169 °C. `Cc1nc(N)c2nc(C)n(CCCNC(=O)N3CCOCC3)c2c1C` yielded a melting point of 129 to 130 °C.

`COc1cc2ccc3c4cc5c(cc4ncc3c2cc1OC)OCO5` returned a melting point of 171 °C. As for `N#Cc1[nH]c(-c2ccc(Cl)cc2)c(S(=O)(=O)C(F)(F)F)c1Br`, the melting point lay in the range of 170 to 185 °C.

In turn, `O=C(O)CCc1cc(OCC2CC2)nn1Cc1ccc(C(F)(F)F)cc1Cl` returned a melting point of 115 to 116 °C.

For `OCc1ccc(-c2ccc3[nH]cc(C[C@H]4CCCN4)c3c2)cc1`, the melting point fell in the range of 65 to 69 °C. For `S=C=Nc1ccccc1N1CCCCC1`, the melting point was 143 to 145 °C. The value for `O=C(N[C@H](Cc1cccc(C(F)(F)F)c1)[C@@H](O)c1ccc(F)cc1)C1CCCCC1` (racemic) was 190 to 191 °C; that for `COC(=O)[C@H]1CN(c2cc(F)c(N3CCSCC3)c(F)c2)C(=O)O1` was 99 to 101 °C; that for `CC(C)n1cc(-c2nc(C(N)=O)c(N)nc2-c2ccc(OC(F)(F)F)cc2)ccc1=O` was 264 °C.

`CC(C)=NOCc1nc2c(N)nc3cc(Br)cnc3c2n1CC(C)C` registered a melting point of 176 to 178 °C. Then `COC=CC(C)(C)C(=O)Nc1ccc(Cl)cc1`, with 93 °C; and `O=[N+]([O-])c1cc(Oc2ccc(Oc3cc([N+](=O)[O-])cc(C(F)(F)F)c3)cc2)cc(C(F)(F)F)c1`, with 163 °C; and `O=C(NC1CCCC1)c1ccccc1C(c1ccc(O)cc1)c1ccc(O)cc1`, with 148 to 150 °C. Compound `COC(=O)C1=C(C)NC(C)=C(C(=O)OCCN2CCN(C(c3ccc(F)cc3)c3ccc(F)cc3)CC2)C1c1cccc([N+](=O)[O-])c1` (stereo not drawn) had a melting point of 68 to 72 °C. Then `COc1ccccc1-c1coc2c(O)c(O)ccc2c1=O`, with 220 to 222 °C; and `CCCCc1nc2cnc3ccc(O)cc3c2n1C`, with 219 to 220 °C; and `CC12CCC3C(CCC4C(=[N+]=[N-])C(=O)CCC43C)C1CCC2O` (stereo not drawn), with 171 °C. The value for `O=C1Nc2ccccc2N(C(=O)CN2CCCCC2CN2CCCCC2)c2ccccc21` (stereo not drawn) was 220 to 221 °C. Then `COc1ccc(C(=O)c2ccc(OCc3nc(-c4ccccc4)oc3C)cc2)c(OCC(=O)O)c1`, with 146 to 147 °C; and `O[C@H](CCc1cccnc1)COc1ccc(Br)cc1`, with 65 to 66 °C; and `COC(=O)[C@@H]1CSCc2c(O[Si](C)(C)C(C)(C)C)cc(OC)c(C)c2C(=O)OC[C@H](O)C(=O)N1`, with 237 to 240 °C. Compound `CC1CC(=O)c2c(ccc(F)c2Cl)N1` (single isomer, unassigned; (-)) had a melting point of 117 to 119 °C.

With `Cc1cc(-n2cnnn2)ccc1[N+](=O)[O-]`, the melting point fell in the range of 166 to 168 °C.

Turning to `COc1ccc(CCc2c(Cl)cncc2Cl)c2c1OC(C)(C)C2`, the melting point lay in the range of 128 to 133 °C. `CCCCc1oc2ccccc2c1C(=O)Nc1ccc(-c2ccc(OCc3nnn[nH]3)cc2)cc1` yielded a melting point of 210 to 212 °C. The value for `Cc1ccc(Cl)c(C(=O)c2ccc(Cl)cc2)c1Cl` was 132 to 136 °C. The value for `COc1ccc(C(=O)Nc2ccc(F)c(F)c2)cc1N` was 171 to 172 °C. `CC(=O)N(C(C)=O)c1cnn(-c2cccc(C(F)(F)F)c2)c(=O)c1-c1cccc(C(F)(F)F)c1` showed a melting point of 174 °C. Then `COC(=O)C(O)c1ccc(Cl)cc1` (stereo not drawn), with 55 °C. Then `Oc1ccccc1-c1cc(-c2ccc(F)c(F)c2)cc(-c2ccco2)n1`, with 147 to 148 °C; and `CCCCOC(=O)C1CC(n2cnc3c(Cl)ncnc32)C(O)C1O` (stereo not drawn), with 104 to 106 °C; and `CC(CCCc1ccccc1)n1nnc2c(=O)[nH]c(C(=O)c3ccccc3)nc21` (stereo not drawn), with 105 °C. Consider `Nc1c(F)c(N2CCC(c3cccnc3)C2)c(F)c2c1c(=O)c(C(=O)O)cn2C1CC1` (stereo not drawn), for which the melting point is 250 to 252 °C. Take `O=C(NCCCn1cnc(-c2ccccc2)c1)c1ccco1`: the melting point was 120 to 122 °C. The value for `COc1ccc(-n2cccc2)c(N)c1` was 42 to 43 °C; that for `CNC(=O)c1ccc(-c2ccc(NC(=O)NCc3cccnc3)cc2)nc1NCCN(C)C` was 163 to 165 °C; that for `O=C(NCc1ccn(C2=CC3=C(CC2)CCc2[nH]c(=O)c(=O)[nH]c23)c1)Nc1ccccc1` was more than 240 °C.

Compound `CC1(C)OC(=O)Nc2ccc(-c3cccc(Br)c3)cc21` displayed a melting point of 174 to 175 °C. On to `O=C(COCCc1coc2c(O)cccc12)c1ccccc1`, for which the melting point lay within 114 to 115 °C.

As to `N#CCC(=O)NCc1ccccn1`, the melting point lay within 82 to 83 °C. Then `N#Cc1nn(-c2c(Cl)cc(C(F)(F)F)cc2Cl)c(N)c1-c1ccc(C(F)(F)F)o1`, with 148 to 151 °C; and `C=CCn1c(=O)n(S(=O)(=O)c2ccc(Cl)cc2)c(=O)c2ccc(Cl)cc21`, with 161 to 163 °C. The value for `Cc1ncc(CNC(=O)c2sc(-n3cnn(Cc4ccc(F)cc4)c3=O)nc2C)s1` was 176 to 177 °C; that for `O=Cc1cccc(-c2ccccn2)n1` was 41 to 43 °C. The value for `C=CCNc1nc(-c2ccccc2)c(-c2ccc(=O)n(CC=C)n2)s1` was 146 to 147 °C. As to `CC(=O)Nc1ccc(C)cc1C(=O)c1ccc(F)cc1`, the melting point is 140 to 145 °C. Then `CC(O)(c1ccccc1)c1cncs1` (stereo not drawn), with 86 to 87 °C; and `CCCCCc1c(C=CC(=O)OC)nc(C(C)C)c(CO)c1-c1ccc(F)cc1`, with 82 to 83 °C. The value for `CC1(C)CCOCN1C(=O)C(Cl)Cl` was 105 to 106 °C; that for `CC(C)(C)[Si](C)(C)OC1CC(=O)c2cc(F)ccc21` (stereo not drawn) was 56 to 58 °C.

As for `CCOC(=O)C(=O)N(CCN=[N+]=[N-])N=Cc1ccccc1`, the melting point was in the range of 59 to 61 °C.

Turning to `COC(=O)C=Cc1ccc2c(c1)cc(C)n2S(=O)(=O)c1ccccc1`, the melting point lay in the range of 126 to 128 °C. Compound `CCOC(=O)CCc1cn(CC(=O)N(C)CCc2ccccc2)c2ccc(OCc3ccccc3)cc12` returned a melting point of 81 to 83 °C.
